Here are results for 30 molecules from US20250171437A1 (Agios Pharmaceuticals,Inc., priority 2022, published 2025).

As usually defined, the AC50 is the concentration at which the activity in the assay is half-maximal.

In the experiment the target is T1, human PAH with the R408W mutation (A375 R408W cells) (Homo sapiens, UniProt P00439, R408W).
T1 construct: expressed in transfected cells
T1 sequence (P00439 1-452 R408W): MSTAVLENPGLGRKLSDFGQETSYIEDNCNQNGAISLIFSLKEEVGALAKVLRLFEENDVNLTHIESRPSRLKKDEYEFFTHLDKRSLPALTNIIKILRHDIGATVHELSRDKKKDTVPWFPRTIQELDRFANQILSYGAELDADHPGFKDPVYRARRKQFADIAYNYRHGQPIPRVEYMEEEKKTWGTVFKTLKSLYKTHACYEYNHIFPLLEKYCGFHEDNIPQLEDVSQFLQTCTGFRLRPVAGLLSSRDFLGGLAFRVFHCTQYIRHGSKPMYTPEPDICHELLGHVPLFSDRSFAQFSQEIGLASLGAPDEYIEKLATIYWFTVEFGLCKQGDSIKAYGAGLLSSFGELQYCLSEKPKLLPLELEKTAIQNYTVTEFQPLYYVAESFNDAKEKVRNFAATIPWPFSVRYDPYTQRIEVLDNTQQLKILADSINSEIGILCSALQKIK
Put plainly: Cell Based Phenylalanine Flux Assay. The following applies: 24 hrs with compound, then 20 μM sepiapterin and 800 μM 13C9,15N-Phenylalanine for 4 hours, 13C-Tyrosine by LC-MS, average where tested multiple times. In a few lines:
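A375 cells stably expressing lentiviral human PAH R408W were treated with compounds (10-point 2-fold dilutions, 0.5% DMSO, duplicate) for 24 h at 37 °C. Then 20 μM sepiapterin and 800 μM 13C9,15N-Phe were added for 4 h; media 13C-Tyr was measured by LC-MS to give AC50.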

The mark [1] stands for this setting: A375 cells expressing R408W PAH.

For the molecule `O=C(c1ocnc1C(F)F)N1CCc2[nH]cnc2[C@H]1c1nc2c(Cl)cccc2o1` [Example 437, [(4S)-4-(4-chloro-1,3-benzoxazol-2-yl)-1,4,6,7-tetrahydroimidazo[4,5-c]pyridin-5-yl]-[4-(difluoromethyl)oxazol-5-yl]methanone], under “A375 R408W cells”, the AC50 is at most 500 nM. With `COc1cc(F)cc2nc([C@H]3c4nc[nH]c4CCN3C(=O)c3ocnc3C(F)F)oc12` [Example 717, (R)-(4-(difluoromethyl)oxazol-5-yl)(4-(5-fluoro-7-methoxybenzo[d]oxazol-2-yl)-6,7-dihydro-1H-imidazo[4,5-c]pyridin-5(4H)-yl)methanone], the AC50 (A375 R408W cells) was in the range of 500 to 1000 nM. With `O=C(c1nnc(-c2cc(C(F)(F)F)ccn2)o1)N1CCc2[nH]cnc2[C@H]1c1nc2cc(F)ccc2o1` [Example 122, [(4S)-4-(5-fluoro-1,3-benzoxazol-2-yl)-1,4,6,7-tetrahydroimidazo[4,5-c]pyridin-5-yl]-[5-[4-(trifluoromethyl)-2-pyridyl]-1,3,4-oxadiazol-2-yl]methanone], the AC50 (A375 R408W cells) was at most 500 nM. As for `CNc1ccc2c(C(=O)N3CCc4[nH]cnc4C3c3nc4cc(F)ccc4o3)cnn2c1` (stereo not drawn), under setting [1], the AC50 is at least 5000 nM. `Cc1cccc2oc([C@@H]3c4nc[nH]c4CCN3C(=O)c3ccnn3C(F)F)nc12` [Example 449, (S)-(1-(difluoromethyl)-1H-pyrazol-5-yl)(4-(4-methylbenzo[d]oxazol-2-yl)-6,7-dihydro-1H-imidazo[4,5-c]pyridin-5(4H)-yl)methanone]: the AC50 (A375 R408W cells) is at most 500 nM. Still for that read-out and setting: in the case of `O=C(c1ocnc1C(F)F)N1CC2(CC2)c2[nH]cnc2[C@@H]1c1nc2cccc(F)c2o1` [Example 912, (R)-(4-(difluoromethyl)oxazol-5-yl)(4′-(7-fluorobenzo[d]oxazol-2-yl)spiro[cyclopropane-1,7′-imidazo[4,5-c]pyridin]-5′(1′H,4′H,6′H)-yl)methanone] it was 500 to 1000 nM; in that of `Cn1ccc(-c2nc(C(F)(F)F)c(C(=O)N3CCc4[nH]cnc4[C@H]3c3nc4cc(F)ccc4o3)o2)n1` [Example 787, (S)-(4-(5-fluorobenzo[d]oxazol-2-yl)-6,7-dihydro-1H-imidazo[4,5-c]pyridin-5(4H)-yl)(2-(1-methyl-1H-pyrazol-3-yl)-4-(trifluoromethyl)oxazol-5-yl)methanone], at most 500 nM.

On to `CC(C)(O)c1nc(C(F)F)c(C(=O)N2CCc3[nH]cnc3[C@@H]2c2nc3c(Cl)cccc3o2)o1` [Example 436, [(4R)-4-(4-chloro-1,3-benzoxazol-2-yl)-1,4,6,7-tetrahydroimidazo[4,5-c]pyridin-5-yl]-[4-(difluoromethyl)-2-(1-hydroxy-1-methyl-ethyl)oxazol-5-yl]methanone], for which, for the setting “A375 R408W cells”, the AC50 was 500 to 1000 nM. `Cn1ncnc1C(=O)N1CCc2[nH]cnc2C1c1nc2ccc(F)cc2o1` (stereo not drawn): the half-maximal activity concentration (AC50) under setting [1] is at least 5000 nM.

Regarding `O=C(c1ccn(CC(F)F)n1)N1CCc2[nH]cnc2C1c1nc2c(F)cccc2o1` (stereo not drawn), the AC50 under setting [1] lay within 1000 to 5000 nM. With `Cc1ccc(F)c2nc([C@H]3c4nc[nH]c4CCN3C(=O)c3ocnc3C(F)F)oc12` [Example 744, (R)-(4-(difluoromethyl)oxazol-5-yl)(4-(4-fluoro-7-methylbenzo[d]oxazol-2-yl)-6,7-dihydro-1H-imidazo[4,5-c]pyridin-5(4H)-yl)methanone], the AC50 (A375 R408W cells) is at most 500 nM. `O=C(c1ocnc1C(F)(F)F)N1CCc2[nH]cnc2[C@H]1c1nc2cc(F)ccc2o1` [Example 23, (S)-(4-(5-fluorobenzo[d]oxazol-2-yl)-6,7-dihydro-1H-imidazo[4,5-c]pyridin-5(4H)-yl)(4-(trifluoromethyl)oxazol-5-yl)methanone]: the AC50 (A375 R408W cells) is at most 500 nM. Turning to `CN1C2CCC1CN(c1ccc3c(C(=O)N4CCc5[nH]cnc5C4c4nc5cc(F)ccc5o4)cnn3c1)C2` (single isomer, unassigned), under setting [1], the AC50 is 1000 to 5000 nM.

Take `O=C(c1nnc(-c2ccc(F)cc2)o1)N1CCc2[nH]cnc2[C@@H]1c1nc2cc(F)ccc2o1` [Example 28, (R)-(4-(5-fluorobenzo[d]oxazol-2-yl)-6,7-dihydro-1H-imidazo[4,5-c]pyridin-5(4H)-yl)(5-(4-fluorophenyl)-1,3,4-oxadiazol-2-yl)methanone]: the AC50 (A375 R408W cells) lay in the range of 1000 to 5000 nM. Consider `O=C(c1cnn2cc(N3CCC(O)CC3)ccc12)N1CCc2[nH]cnc2C1c1nc2c(F)cc(F)cc2o1` (stereo not drawn), for which the AC50 under setting [1] lay in the range of 1000 to 5000 nM.

On to `Cc1cccc2nc([C@@H]3c4nc[nH]c4CCN3C(=O)c3nc(C(F)F)nn3C)oc12` [Example 613, (S)-(3-(difluoromethyl)-1-methyl-1H-1,2,4-triazol-5-yl)(4-(7-methylbenzo[d]oxazol-2-yl)-6,7-dihydro-1H-imidazo[4,5-c]pyridin-5(4H)-yl)methanone], for which the AC50 (A375 R408W cells) is at most 500 nM. For `CC(C)(O)c1nc(C(F)F)c(C(=O)N2CCc3[nH]cnc3[C@H]2c2nc3c(F)c(F)ccc3o2)o1` [Example 347, (S)-(4-(4,5-difluorobenzo[d]oxazol-2-yl)-6,7-dihydro-1H-imidazo[4,5-c]pyridin-5(4H)-yl)(4-(difluoromethyl)-2-(2-hydroxypropan-2-yl)oxazol-5-yl)methanone], the AC50 (A375 R408W cells) lay in the range of 500 to 1000 nM. As for `Cn1ccc(-c2nnc(C(=O)N3CCc4[nH]cnc4[C@H]3c3nc4cccc(F)c4o3)o2)n1` [Example 337, (S)-(4-(7-fluorobenzo[d]oxazol-2-yl)-6,7-dihydro-1H-imidazo[4,5-c]pyridin-5(4H)-yl)(5-(1-methyl-1H-pyrazol-3-yl)-1,3,4-oxadiazol-2-yl)methanone], the AC50 (A375 R408W cells) was at most 500 nM.

Turning to `Cc1ccc2oc([C@H]3c4nc[nH]c4CCN3C(=O)c3ocnc3C(F)(F)F)nc2c1` [Example 64, (R)-(4-(5-methylbenzo[d]oxazol-2-yl)-6,7-dihydro-1H-imidazo[4,5-c]pyridin-5(4H)-yl)(4-(trifluoromethyl)oxazol-5-yl)methanone], where the note is “A375 R408W cells”, the AC50 was at most 500 nM.

`Cc1nc([C@H](C)O)oc1C(=O)N1CCc2[nH]cnc2[C@H]1c1nc2ccc(F)cc2o1` [Example 241, ((S)-4-(6-fluorobenzo[d]oxazol-2-yl)-6,7-dihydro-1H-imidazo[4,5-c]pyridin-5(4H)-yl)(2-((S)-1-hydroxyethyl)-4-methyloxazol-5-yl)methanone]: the AC50 (A375 R408W cells) was 1000 to 5000 nM. With `O=C(c1nnc(-c2ccn(C(F)F)n2)o1)N1CCc2[nH]cnc2[C@@H]1c1nc2cc(F)ccc2o1` [Example 114, (R)-(5-(1-(difluoromethyl)-1H-pyrazol-3-yl)-1,3,4-oxadiazol-2-yl)(4-(5-fluorobenzo[d]oxazol-2-yl)-6,7-dihydro-1H-imidazo[4,5-c]pyridin-5(4H)-yl)methanone], the AC50 (A375 R408W cells) lay in the range of 1000 to 5000 nM.

Regarding `O=C(c1ocnc1C(F)F)N1CCc2[nH]cnc2[C@@H]1c1nc2cc(F)ccc2o1` [Example 52, (R)-(4-(difluoromethyl)oxazol-5-yl)(4-(5-fluorobenzo[d]oxazol-2-yl)-6,7-dihydro-1H-imidazo[4,5-c]pyridin-5(4H)-yl)methanone], the AC50 (A375 R408W cells) lay in the range of 500 to 1000 nM. On to `Cc1ccc2oc(C3c4nc[nH]c4CCN3C(=O)c3nnc(C(C)(C)O)o3)nc2c1` (stereo not drawn), for which the AC50 under setting [1] is 1000 to 5000 nM. Regarding `Cc1ccc2oc([C@H]3c4nc[nH]c4CCN3C(=O)c3nnc(-c4cnn(C)c4)o3)nc2c1` [Example 112, (R)-(5-(1-methyl-1H-pyrazol-4-yl)-1,3,4-oxadiazol-2-yl)(4-(5-methylbenzo[d]oxazol-2-yl)-6,7-dihydro-1H-imidazo[4,5-c]pyridin-5(4H)-yl)methanone], the AC50 (A375 R408W cells) fell in the range of 1000 to 5000 nM. For `Cc1nc(C(C)(C)N(C)C)oc1C(=O)N1CCc2[nH]cnc2C1c1nc2cc(F)ccc2o1` (stereo not drawn), under setting [1], the AC50 is at least 5000 nM. Regarding `COCc1ncc(C(=O)N2CCc3[nH]cnc3C2c2nc3cc(F)ccc3o2)s1` (stereo not drawn), the AC50 under setting [1] was 1000 to 5000 nM.

`CC(C)(O)c1nc(C(F)F)c(C(=O)N2CCc3[nH]cnc3[C@@H]2c2nc3cccc(Cl)c3o2)o1` [Example 424, (R)-(4-(7-chlorobenzo[d]oxazol-2-yl)-6,7-dihydro-1H-imidazo[4,5-c]pyridin-5(4H)-yl)(4-(difluoromethyl)-2-(2-hydroxypropan-2-yl)oxazol-5-yl)methanone]: the AC50 (A375 R408W cells) is at most 500 nM. As to `CC(C)(C)OC(=O)N1CCN(c2ccc3c(C(=O)N4CCc5[nH]cnc5C4c4nc5cc(F)ccc5o4)cnn3c2)CC1` (stereo not drawn), the AC50 under setting [1] lay within 1000 to 5000 nM.

Regarding `CC(C)(CO)c1nc(C(F)F)c(C(=O)N2CCc3[nH]cnc3[C@@H]2c2nc3cc(F)ccc3o2)o1` [Example 823, (R)-(4-(difluoromethyl)-2-(1-hydroxy-2-methylpropan-2-yl)oxazol-5-yl)(4-(5-fluorobenzo[d]oxazol-2-yl)-6,7-dihydro-1H-imidazo[4,5-c]pyridin-5(4H)-yl)methanone], for the setting “A375 R408W cells”, the AC50 was 1000 to 5000 nM. On to `O=C(c1oc(C2(O)CCC2)nc1C(F)(F)F)N1CCc2[nH]cnc2[C@H]1c1nc2cc(F)ccc2o1` [Example 585, (S)-(4-(5-fluorobenzo[d]oxazol-2-yl)-6,7-dihydro-1H-imidazo[4,5-c]pyridin-5(4H)-yl)(2-(1-hydroxycyclobutyl)-4-(trifluoromethyl)oxazol-5-yl)methanone], for which the AC50 (A375 R408W cells) is at most 500 nM.
